Patent US7687510B2, “Pyrimidinone derivatives as therapeutic agents against acute and chronic inflammatory, ischaemic and remodelling processes” (Bayer Healthcare AG, priority 2002, dated 2010)

Assays:
[1] = target: T1, human neutrophil elastase (HNE) (Homo sapiens, UniProt P08246); test: In vitro inhibition of HNE using a fluorogenic peptide substrate (continuous read-out signal, 384 MTP assay format); format: biochemical; conditions: substrate MeOSuc-Ala-Ala-Pro-Val-AMC, 37° C.
T1 construct: purchased SERVA Electrophoresis GmbH, Heidelberg, Germany #20927.01
T1 sequence (P08246 30-267): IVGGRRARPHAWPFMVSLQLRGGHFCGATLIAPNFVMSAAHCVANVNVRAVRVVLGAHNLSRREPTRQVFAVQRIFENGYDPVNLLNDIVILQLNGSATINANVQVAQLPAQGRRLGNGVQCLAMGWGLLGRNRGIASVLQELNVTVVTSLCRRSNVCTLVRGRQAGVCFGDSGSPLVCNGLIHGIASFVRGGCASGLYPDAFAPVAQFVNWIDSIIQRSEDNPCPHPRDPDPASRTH
Method: I. In vitro Enzyme Assays of Human Neutrophil Elastase (HNE)
assay buffer: 0.1 M HEPES-NaOH buffer pH 7.4, 0.5 M NaCl, 0.1% (w/v) bovine serum albumin;
suitable concentration (see below) of substrate in assay buffer;
suitable concentration of test compounds diluted with assay buffer from a 10 mM stock solution in DMSO.
The test solution is prepared by mixing 10 μl of test compound dilution, 20 μl of HNE enzyme dilution (final concentration 8-0.4 μU/ml, routinely 2.1 μU/ml) and 20 μl of substrate dilution (final concentration 1 mM-1 μM, routinely 20 μM), respectively. The solution is incubated for 0-2 hrs at 37° C. (routinely one hour). The florescence of the liberated AMC due to the enzymatic reaction is measured at 37° C. (TECAN spectra fluor plus plate reader). […] IC50 values are determined by RFU-versus-[I] plots. Km and Km(app.) values are determined by Lineweaver-Burk inverted to Ki values by Dixon plots.

[2] = test system: human polymorphonuclear cells (PMNs); test: In vitro PMN elastolysis assay (tritiated elastin); format: cell-based; conditions: mean±s.e.m.
Method: In Vitro PMN Elastolysis Assay:
This assay is used to determine the elastolytic potential of human polymorphonuclear cells (PMNs) and assess the proportion of degradation due to neutrophil elastase [cf. Z. W. She et al., Am. J. Respir. Cell. Mol. Biol. 9, 386-392 (1993)].
Tritiated elastin, in suspension, is coated on to a 96 well plate at 10 μg per well. Test and reference [ZD-0892 (J. Med. Chem. 40, 1876-1885, 3173-3181 (1997), WO 95/21855) and α1 protease inhibitor (α1PI)] compounds are added to the wells at the appropriate concentrations. […] Porcine pancreatic elastase (1.3 μM is used as a positive control for the assay, and α1PI (1.2 μM) is used as the positive inhibitor of neutrophil elastase. The cellular control is PMNs without compound at each appropriate cell density. The cells plus compounds are incubated in a humidified incubator at 37° C. for 4 hours. The plates are centrifuged to allow the harvest of cell supernatant only. The supernatant is transferred in 75 μl volumes to corresponding wells of a 96 well Lumaplate™ (solid scintillant containing plates). The plates are dried until no liquid is visible in the wells and read in a beta counter for 3 minutes per well. […]
The compounds of this invention are evaluated for their inhibitory activity in this HNE-dependent model of neutrophil elastolysis.

Row | Compound | IC50 [1] | other results
1 | N#CC1=C(N)N(c2cccc(C(F)(F)F)c2)C(=O)NC1c1ccc(C#N)cc1 (stereo not shown) [Example 9, 6-Amino-4-(4-cyanophenyl)-2-oxo-1-[3-(trifluoromethyl)phenyl]-1,2,3,4-tetrahydro-5-pyrimidinecarbonitrile] | 40 nM | 
2 | CCOC(=O)C1=C(C)N(c2cccc(C(F)(F)F)c2)C(=O)N(C)C1c1ccc(C#N)cc1 (stereo not shown) [Example 14, Ethyl 4-(4-cyanophenyl)-3,6-dimethyl-2-oxo-1-[3-(trifluoromethyl)phenyl]-1,2,3,4-tetrahydro-5-pyrimidinecarboxylate] | 5 nM | 
3 | CCOC(=O)C1=C(C)N(c2cccc(C(F)(F)F)c2)C(=O)N(C(C)=O)C1c1ccc(C#N)cc1 (stereo not shown) [Example 15, Ethyl 3-acetyl-4-(4-cyanophenyl)-6-methyl-2-oxo-1-[3-(trifluoromethyl)phenyl]-1,2,3,4-tetrahydro-5-pyrimidinecarboxylate] | 8 nM | 
4 | CCOC(=O)C1=C(C)N(c2cccc(C(F)(F)F)c2)C(=O)N(C(=O)OCC)C1c1ccc(C#N)cc1 (stereo not shown) [Example 16, Diethyl 6-(4-cyanophenyl)-4-methyl-2-oxo-3-[3-(trifluoromethyl)phenyl]-3,6-di-hydro-1,5(2H)-pyrimidinedicarboxylate] | 10 nM | 
5 | CCOC(=O)C1=C(CN(CC)CC)N(c2cccc(C(F)(F)F)c2)C(=O)NC1c1ccc(C#N)cc1 (stereo not shown) [Example 20, Ethyl 4-(4-cyanophenyl)-6-[(diethylamino)methyl]-2-oxo-1-[3-(trifluoromethyl)-phenyl]-1,2,3,4-tetrahydro-5-pyrimidinecarboxylate] | 700 nM | 
6 | CCOC(=O)C1=C(C)N(c2cccc(C(F)(F)F)c2)C(=O)NC1c1ccc(C#N)nc1 (stereo not shown) [Example 24, Ethyl 4-(6-cyano-3-pyridinyl)-6-methyl-2-oxo-1-[3-(trifluoromethyl)phenyl]-1,2,3,4-tetrahydro-5-pyrimidinecarboxylate] | 13 nM | 
7 | CC1=C(C(=O)OCCc2ccncc2)C(c2ccc(C#N)cc2)NC(=O)N1c1cccc(C(F)(F)F)c1 (stereo not shown) [Example 28, 2-(4-Pyridinyl)ethyl 4-(4-cyanophenyl)-6-methyl-2-oxo-1-[3-(trifluoromethyl)phenyl]-1,2,3,4-tetrahydro-5-pyrimidinecarboxylate] | 50 nM | 
8 | COc1ccc(C(=O)N[C@H](C(=O)N2CCC[C@H]2C(=O)N[C@H](C(=O)C(F)(F)F)C(C)C)C(C)C)cc1 [ZD-0892] |  | IC50 ([2]; n=2 different donors at 3.6×10^5 cells per well): 45.5 ± 7.75 nM
9 | α1PI: α1 protease inhibitor, reference and positive inhibitor of neutrophil elastase |  | inhibition of elastolysis ([2]; at 1.2 μM, n=3 different donors at 3.6×10^5 cells per well): 83.46±3.97%

The next lines start with results.

Row | IC50 [1] | Compound | other results
10 | 1100 nM | CC1=C(C(=O)N(C)C)C(c2ccc(C#N)cc2)NC(=O)N1c1cccc(C(F)(F)F)c1 (stereo not shown) [Example 58] | 
11 | 5 nM | CCOC(=O)C1=C(C)N(c2cccc(C(F)(F)F)c2)C(=O)N(CC(=O)N2CCN(C)CC2)C1c1ccc(C#N)cc1 (stereo not shown) [Example 60] | 
12 | 60 nM | CCOC(=O)C1=C(C)N(c2cccc(C(F)(F)F)c2)C(=O)NC1c1cccc([N+](=O)[O-])c1 (stereo not shown) [Example 103, Ethyl 6-methyl-4-(3-nitrophenyl)-2-oxo-1-[3-(trifluoromethyl)phenyl]-1,2,3,4-tetra-hydro-5-pyrimidinecarboxylate] | 
13 | 50 nM | CCOC(=O)C1=C(C)N(c2cccc(C(F)(F)F)c2)C(=O)NC1c1ccc([N+](=O)[O-])cc1 (stereo not shown) [Example 110, Ethyl 6-methyl-4-(4-nitrophenyl)-2-oxo-1-[3-(trifluoromethyl)phenyl]-1,2,3,4-tetra-hydropyrimidine-5-carboxylate] | 
